Laboratory results as given in PubChem BioAssay AID2060342 (Molecular Pharmacology Branch, DTP, NCI, 2025).
Values joined by “and” are separate entries in the source; they are usually repeats but may differ in a detail not shown here. Identical values can stand only once.

Test system: 171881-019-R-J1-PDC multicell spheroid viability
Assay: Anticancer human tumor 171881-019-R-J1-PDC patient-derived invasive breast carcinoma cell line growth inhibition [IpAb]
Settings: for viability, T/C: stronger effect = lower value; active = viability on the fitted dose curve at most 10% of control; inactive = the rest
How it was run: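 Multi-cell spheroids of 60% tumour cells, 25% HUVEC and 15% MSC in ultra-low-attachment U-bottom wells, treated with agents combined with ipatasertib or abemaciclib. Half-log ranges top out near clinical Cmax, or 10 microM when Cmax is unknown.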

[1] = curve of first compound, second compound 0.1 µM
[2] = curve of first compound, second compound 0.316 µM
[3] = curve of first compound, second compound 1 µM
[4] = second compound 0.1 µM, first compound 0.0316 µM
[5] = second compound 0.1 µM, first compound 0.1 µM
[6] = second compound 0.1 µM, first compound 0.316 µM
[7] = second compound 0.1 µM, first compound 1 µM
[8] = second compound 0.1 µM, first compound 3.16 µM
[9] = second compound 0.1 µM, first compound 10 µM
[10] = second compound 0.316 µM, first compound 0.0316 µM
[11] = second compound 0.316 µM, first compound 0.1 µM
[12] = second compound 0.316 µM, first compound 0.316 µM
[13] = second compound 0.316 µM, first compound 1 µM
[14] = second compound 0.316 µM, first compound 3.16 µM
[15] = second compound 0.316 µM, first compound 10 µM
[16] = second compound 1 µM, first compound 0.0316 µM
[17] = second compound 1 µM, first compound 0.1 µM
[18] = second compound 1 µM, first compound 0.316 µM
[19] = second compound 1 µM, first compound 1 µM
[20] = second compound 1 µM, first compound 3.16 µM
[21] = second compound 1 µM, first compound 10 µM
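Also: spheroids exposed to the agents for seven days before readout.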

CC1(C)CCC(CN2CCN(c3ccc(C(=O)NS(=O)(=O)c4ccc(NCC5CCOCC5)c([N+](=O)[O-])c4)c(Oc4cnc5[nH]ccc5c4)c3)CC2)=C(c2ccc(Cl)cc2)C1 + CCN1CCN(Cc2ccc(Nc3ncc(F)c(-c4cc(F)c5nc(C)n(C(C)C)c5c4)n3)nc2)CC1
5.97 µM: IC50 [2]
6.19 µM: IC50 (curve of first compound, second compound 0.0316 µM)
6.55 µM: IC50 [3]
5.42 µM: IC50 (curve of first compound, second compound 0.01 µM)
5.54 µM: IC50 [1]
inactive: viability, T/C (second compound 0.01 µM, first compound 0.0316 µM) 84.5% | viability, T/C (second compound 0.01 µM, first compound 0.1 µM) 79% | viability, T/C (second compound 0.01 µM, first compound 0.316 µM) 76.6% | viability, T/C (second compound 0.01 µM, first compound 1 µM) 72.4% | viability, T/C (second compound 0.01 µM, first compound 3.16 µM) 83.4% | viability, T/C (second compound 0.01 µM, first compound 10 µM) 16.6% | viability, T/C (second compound 0.0316 µM, first compound 0.0316 µM) 89.7% | viability, T/C (second compound 0.0316 µM, first compound 0.1 µM) 86.7% | viability, T/C (second compound 0.0316 µM, first compound 0.316 µM) 86.8% | viability, T/C (second compound 0.0316 µM, first compound 1 µM) 70.4% | viability, T/C (second compound 0.0316 µM, first compound 3.16 µM) 89.3% | viability, T/C (second compound 0.0316 µM, first compound 10 µM) 25.3% | viability, T/C [4] 109% | viability, T/C [5] 105% | viability, T/C [6] 98.9% | viability, T/C [7] 89% | viability, T/C [8] 79% | viability, T/C [9] 22.9% | viability, T/C [10] 120% | viability, T/C [11] 117% | viability, T/C [12] 109% | viability, T/C [13] 99.7% | viability, T/C [14] 89.2% | viability, T/C [15] 21.1% | viability, T/C [16] 138% | viability, T/C [17] 139% | viability, T/C [18] 136% | viability, T/C [19] 128% | viability, T/C [20] 104% | viability, T/C [21] 18.4%

C=CC(=O)N1CCN(c2nc(=O)n(-c3c(C)ccnc3C(C)C)c3nc(-c4c(O)cccc4F)c(F)cc23)C(C)C1 (centres undefined)
7.47 µM and 6.74 µM: IC50 (curve of compound)
inactive: viability, T/C (compound 0.0316 µM) 98.7% and 101% | viability, T/C (compound 0.1 µM) 92.3% and 95.8% | viability, T/C (compound 0.316 µM) 99% and 106% | viability, T/C (compound 1 µM) 94.1% and 95.3% | viability, T/C (compound 3.16 µM) 93.6% and 84.7% | viability, T/C (compound 10 µM) 35.2% and 31.8%

Cn1ncc(Cl)c1-c1cc(C(=O)NC(CN)Cc2cccc(F)c2)sc1Cl (centres undefined)
0.163 µM and 0.167 µM: IC50 (curve of compound)
active: viability, T/C (compound 3.16 µM) 3.57% and 3.17% | viability, T/C (compound 10 µM) 0.84% and 0.66%
inactive: viability, T/C (compound 0.0316 µM) 107% and 112% | viability, T/C (compound 0.1 µM) 64.8% and 67.2% | viability, T/C (compound 0.316 µM) 29.7% and 27.4% | viability, T/C (compound 1 µM) 11.8% and 13.5%

CCN1CCN(Cc2ccc(Nc3ncc(F)c(-c4cc(F)c5nc(C)n(C(C)C)c5c4)n3)nc2)CC1
> 1 µM: IC50 (compound alone, run of 05/18/2021)
inactive: viability, T/C (compound 0.01 µM) 91.6% [middle of 13 runs] | viability, T/C (compound 0.0316 µM) 105% [middle of 13 runs] | viability, T/C (compound 0.1 µM) 116% [middle of 13 runs] | viability, T/C (compound 1 µM) 149% [middle of 13 runs]

CCCS(=O)(=O)Nc1ccc(F)c(C(=O)c2c[nH]c3ncc(-c4ccc(Cl)cc4)cc23)c1F + CC(C)NCC(C(=O)N1CCN(c2ncnc3c2C(C)CC3O)CC1)c1ccc(Cl)cc1
inactive: viability, T/C [4] 112% | viability, T/C [5] 128% | viability, T/C [6] 110% | viability, T/C [7] 111% | viability, T/C [8] 112% | viability, T/C [9] 90.8% | viability, T/C [10] 90.3% | viability, T/C [11] 91.5% | viability, T/C [12] 92.5% | viability, T/C [13] 97.8% | viability, T/C [14] 110% | viability, T/C [15] 100% | viability, T/C [16] 36.9% | viability, T/C [17] 39.9% | viability, T/C [18] 38.9% | viability, T/C [19] 41.4% | viability, T/C [20] 47.2% | viability, T/C [21] 53.7% | viability, T/C (second compound 3.16 µM, first compound 0.0316 µM) 12.8% | viability, T/C (second compound 3.16 µM, first compound 0.1 µM) 13.4% | viability, T/C (second compound 3.16 µM, first compound 0.316 µM) 14.2% | viability, T/C (second compound 3.16 µM, first compound 1 µM) 14.5% | viability, T/C (second compound 3.16 µM, first compound 3.16 µM) 21% | viability, T/C (second compound 3.16 µM, first compound 10 µM) 24.1%
< 0.0316 µM: IC50 [3] | IC50 (curve of first compound, second compound 3.16 µM) | IC50 (curve of first compound, second compound 10 µM)
> 10 µM: IC50 [1] | IC50 [2]
active: viability, T/C (second compound 10 µM, first compound 0.0316 µM) 7.7% | viability, T/C (second compound 10 µM, first compound 0.1 µM) 7.32% | viability, T/C (second compound 10 µM, first compound 0.316 µM) 8.04% | viability, T/C (second compound 10 µM, first compound 1 µM) 8.61% | viability, T/C (second compound 10 µM, first compound 3.16 µM) 10.4% | viability, T/C (second compound 10 µM, first compound 10 µM) 11%
